These are literature values, as cited in article PMC11542186, “Pin1 WW Domain Ligand Library Synthesized with an Easy Solid-Phase Phosphorylating Reagent” (Biochemistry, 2024).

One data set has as its target Pin1 WW domain. More on the design: method as in PMID 10932246. As to conditions: read-out: affinity for the WW domain; cited from earlier work.
For the next data set, the target named is full-length Pin1. More on the design: method as in PMID 10932246. As to conditions: read-out: affinity for full-length Pin1; cited from earlier work.
The test system of the next data set is Pin1 catalytic domain. More on the design: method as in PMID 10932246. Particulars: cited from earlier work.
The target of another data set is isolated Pin1 WW domain. More on the design: method as in PMID 16033261. As to conditions: measured by NMR for the isolated Pin1 WW domain; cited from earlier work.

Where a SMILES comes first, the peptide text is derived from it. [ ]: non-standard residue; d: D form. pT = C[C@@H](OP(=O)(O)O)[C@H](N)C(=O)O

Regarding Fmoc–VPRpTPVGGGK–NH2 [Compound L1], the Kd is 7.7 µM on Pin1 WW domain and 4.9 µM at full-length Pin1. For the same compound, the “binding to the catalytic domain” value in the data set on Pin1 catalytic domain is recorded as “no binding”.
As to `CC(=O)N[C@H](C(=O)N1CCC[C@H]1C(N)=O)[C@@H](C)OP(=O)(O)O` [Ac–pThr–Pro–NH2] (Ac-[pT]-Pro-NH2), the Kd at isolated Pin1 WW domain is 150 µM.
